Like-named read-outs stand apart in the source and are kept apart here.
Legend:
[1] = target: Beta Secretase enzyme (BACE) (Homo sapiens, UniProt P56817); assay: In vitro enzymatic BACE FRET (fluorescence resonance energy transfer) assay; type: biochemical
In short: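 A peptide bearing a fluorophore and quencher across the cleavage site serves as substrate at 50 nM. Reactions proceed one hour in acidic acetate buffer (0.05 M, pH 4.2) containing 10% DMSO final and 100 uM genapol, then are terminated with Tris and read fluorimetrically.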

[2] = system: Aβ40 in conditioned medium of cells stably expressing Amyloid Precursor Protein (APP); assay: In vitro BACE cell-based assay (Aβ40 in conditioned medium, sandwich ELISA)
In short: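 The sandwich ELISA pairs pAb40 capture (3 h, 4 °C) with 6E10 detection (2 h, 4 °C) and a streptavidin-europium TRF read-out. Supernatants come from APP-expressing cells grown in 10% FBS DMEM.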

[3] = average IC50, enzyme assay, read-out: BACE 1 FRET assay
[4] = Homo sapiens, HEK293, average IC50, HEK cells, read-out: HEK cell assay

Sequence of Beta Secretase enzyme (BACE) (P56817 46-501, species assumed): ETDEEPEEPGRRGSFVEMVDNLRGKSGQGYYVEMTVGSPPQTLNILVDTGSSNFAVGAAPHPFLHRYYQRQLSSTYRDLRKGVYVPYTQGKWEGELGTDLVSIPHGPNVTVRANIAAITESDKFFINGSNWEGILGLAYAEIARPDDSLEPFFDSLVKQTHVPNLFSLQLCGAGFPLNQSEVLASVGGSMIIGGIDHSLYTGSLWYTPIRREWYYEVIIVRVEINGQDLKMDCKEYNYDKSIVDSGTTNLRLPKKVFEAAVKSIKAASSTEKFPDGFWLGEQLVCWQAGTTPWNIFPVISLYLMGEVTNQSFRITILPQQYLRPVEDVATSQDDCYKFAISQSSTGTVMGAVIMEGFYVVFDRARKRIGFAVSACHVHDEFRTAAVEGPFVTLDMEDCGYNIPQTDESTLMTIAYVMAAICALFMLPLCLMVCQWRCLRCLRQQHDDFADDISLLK

Compound | IC50 [1, 3] | IC50 [2, 4] | IC50 ([1]; BACE 1 FRET assay (uM)) | IC50 ([2]; Homo sapiens, HEK293, read-out: HEK cell assay (uM), average IC50, HEK cells) | IC50 ([2]; average IC50, HEK cells, read-out: HEK cell assay)
CC(C)(C)COc1ccc2c(c1)[C@]1(COC(N)=N1)c1c(ccc(-c3cncnc3)c1F)O2 [Example 515, (4R)-7′-(2,2-dimethylpropoxy)-1′-fluoro-2′-(5-pyrimidinyl)spiro[1,3-oxazole-4,9′-xanthen]-2-amine] | 0.0013 µM | 0.0285 µM | – | – | –
CC1(COc2ccc3c(c2Br)[C@]2(COC(N)=N2)c2cc(-c4cccnc4)ccc2O3)COC1 [Example 517, (4S)-1′-bromo-2′-((3-methyl-3-oxetanyl)methoxy)-7′-(3-pyridinyl)spiro[1,3-oxazole-4,9′-xanthen]-2-amine] | 0.0084 µM | 0.0205 µM | – | – | –
CC(C)(O)C#Cc1c(OCC2(C)COC2)ccc2c1[C@]1(COC(N)=N1)c1cc(-c3cccnc3)ccc1O2 [Example 518, 4-((4S)-2-amino-2′-((3-methyl-3-oxetanyl)methoxy)-7′-(3-pyridinyl)spiro[1,3-oxazole-4,9′-xanthen]-1′-yl)-2-methyl-3-butyn-2-ol] | 0.0755 µM | 0.0649 µM | – | – | –
NC1=N[C@@]2(CO1)c1cc(-c3cccnc3F)ccc1Oc1ncc(C#CC3(O)COC3)cc12 [Example 519, 3-(((5S)-2′-amino-7-(2-fluoro-3-pyridinyl)spiro[chromeno[2,3-b]pyridine-5,4′-[1,3]oxazol]-3-yl)ethynyl)-3-oxetanol] | 0.0032 µM | 0.0297 µM | – | – | –
NC1=N[C@@]2(CO1)c1cc(-c3cccnc3F)ccc1Oc1ncc(C#CC3(F)COC3)cc12 [Example 520, (5S)-3-((3-fluoro-3-oxetanyl)ethynyl)-7-(2-fluoro-3-pyridinyl)spiro[chromeno[2,3-b]pyridine-5,4′-[1,3]oxazol]-2′-amine] | 0.0014 µM | 0.0139 µM | – | – | –
COc1cc(F)c2c(c1)C1(COC(N)=N1)c1cc(Br)c(F)cc1O2 (stereo not drawn) [Example 521, 2′-bromo-3′,5′-difluoro-7′-methoxyspiro[1,3-oxazole-4,9′-xanthen]-2-amine] | 7.24 µM | 10 µM | – | – | –
NC1=NC2(CS1)c1cc(I)ccc1Oc1ncc(Br)cc12 (stereo not drawn) [Example 522, 3-bromo-7-iodospiro[chromeno[2,3-b]pyridine-5,4′-[1,3]thiazol]-2′-amine] | 4.5 µM | 10 µM | – | – | –
COc1cc(F)c2c(c1)[C@]1(COC(N)=N1)c1cc(Br)c(F)cc1O2 [Example 523, (4S)-2′-bromo-3′,5′-difluoro-7′-methoxyspiro[1,3-oxazole-4,9′-xanthen]-2-amine] | 0.884 µM | 1.78 µM | – | – | –
COc1cc(F)c2c(c1)[C@@]1(COC(N)=N1)c1cc(Br)c(F)cc1O2 [Example 524, (4R)-2′-bromo-3′,5′-difluoro-7′-methoxyspiro[1,3-oxazole-4,9′-xanthen]-2-amine] | 1.14 µM | 1.31 µM | – | – | –
CC(C)(C)COc1cc(F)c2c(c1)[C@@]1(COC(N)=N1)c1cc(-c3cncnc3)c(F)cc1O2 [Example 525, (4R)-7′-(2,2-dimethylpropoxy)-3′,5′-difluoro-2′-(5-pyrimidinyl)spiro[1,3-oxazole-4,9′-xanthen]-2-amine] | 0.159 µM | 2.39 µM | – | – | –
CC(C)(C)COc1cc(F)c2c(c1)[C@]1(COC(N)=N1)c1cc(-c3cncnc3)c(F)cc1O2 [Example 526, (4S)-7′-(2,2-dimethylpropoxy)-3′,5′-difluoro-2′-(5-pyrimidinyl)spiroy[1,3-oxazole-4,9′-xanthen]-2-amine] | 0.002 µM | 0.0091 µM | – | – | –
NC1=N[C@@]2(CO1)c1cc(-c3cccc(Cl)c3)ccc1Oc1cnc(-c3cccc(Cl)c3)cc12 [Example 527, (5S)-3,7-bis(3-chlorophenyl)spiro[chromeno[2,3-c]pyridine-5,4′-[1,3]oxazol]-2′-amine] | 0.0015 µM | 0.612 µM | – | – | –
NC1=N[C@@]2(CO1)c1cc(-c3cccc(Cl)c3)ccc1Oc1cnc(Cl)cc12 [Example 528, (5S)-3-chloro-7-(3-chlorophenyl)spiro[chromeno[2,3-c]pyridine-5,4′-[1,3]oxazol]-2′-amine] | 0.0553 µM | 2.31 µM | – | – | –
CN1CCN(c2cc3c(cn2)Oc2ccc(-c4cccnc4F)cc2[C@@]32COC(N)=N2)CC1(C)C [Example 529, (5S)-7-(2-fluoro-3-pyridinyl)-3-(3,3,4-trimethyl-1-piperazinyl)spiro[chromeno[2,3-c]pyridine-5,4′-[1,3]oxazol]-2′-amine] | 0.0089 µM | 0.0044 µM | – | – | –
C[C@H]1CN(c2cc3c(cn2)Oc2ccc(-c4cccnc4N4CCN(C)[C@@H](C)C4)cc2[C@@]32COC(N)=N2)CCN1C [Example 530, (5S)-3-((3S)-3,4-dimethyl-1-piperazinyl)-7-(2-((3S)-3,4-dimethyl-1-piperazinyl)-3-pyridinyl)spiro[chromeno[2,3-c]pyridine-5,4′-[1,3]oxazol]-2′-amine] | 3.37 µM | 0.195 µM | – | – | –
CN1CCN(c2cccc(-c3ccc4c(c3)[C@@]3(COC(N)=N3)c3cc(Cl)ncc3O4)c2)CC1(C)C [Example 531, (5S)-3-chloro-7-(3-(3,3,4-trimethyl-1-piperazinyl)phenyl)spiro[chromeno[2,3-c]pyridine-5,4′-[1,3]oxazol]-2′-amine] | 13.7 µM | 0.334 µM | – | – | –
COc1ccc2c(c1)[C@@]1(COC(N)=N1)c1cc(N3CCN(C)C(C)(C)C3)cc(F)c1O2 [Example 532, (4S)-4′-fluoro-7′-methoxy-2′-(3,3,4-trimethyl-1-piperazinyl)spiro[1,3-oxazole-4,9′-xanthen]-2-amine] | 2.37 µM | 0.169 µM | – | – | –
COc1ccc(-c2cc3c(cn2)Oc2ccc(-c4cccnc4F)cc2[C@@]32COC(N)=N2)cc1F [Example 533, (5S)-3-(3-fluoro-4-methoxyphenyl)-7-(2-fluoro-3-pyridinyl)spiro[chromeno[2,3-c]pyridine-5,4′-[1,3]oxazol]-2′-amine] | – | – | 0.0014 µM | 0.0235 µM | –
NC1=N[C@@]2(CO1)c1cc(-c3cccnc3F)ccc1Oc1cnc(-c3ccc(F)c(F)c3)cc12 [Example 534, (5S)-3-(3,4-difluorophenyl)-7-(2-fluoro-3-pyridinyl)spiro[chromeno[2,3-c]pyridine-5,4′-[1,3]oxazol]-2′-amine] | 0.0005 µM | 0.0266 µM | – | – | –
COc1ccc(-c2cc3c(cn2)Oc2ccc(-c4cccc(Cl)c4)cc2[C@@]32COC(N)=N2)cc1F [Example 535, (5S)-7-(3-chlorophenyl)-3-(3-fluoro-4-methoxyphenyl)spiro[chromeno[2,3-c]pyridine-5,4′-[1,3]oxazol]-2′-amine] | 0.0007 µM | 0.106 µM | – | – | –
NC1=N[C@@]2(CO1)c1cc(-c3cccnc3)ccc1Oc1cnc(-c3ccnc(F)c3)cc12 [Example 536, (5S)-3-(2-fluoro-4-pyridinyl)-7-(3-pyridinyl)spiro[chromeno[2,3-c]pyridine-5,4′-[1,3]oxazol]-2′-amine] | 0.0023 µM | 0.0271 µM | – | – | –
COc1cc(-c2cc3c(cn2)Oc2ccc(-c4cccnc4F)cc2[C@@]32COC(N)=N2)ccc1F [Example 537, (5S)-3-(4-fluoro-3-methoxyphenyl)-7-(2-fluoro-3-pyridinyl)spiro[chromeno[2,3-c]pyridine-5,4′-[1,3]oxazol]-2′-amine] | 0.0076 µM | 0.303 µM | – | – | –
COc1cc(-c2cc3c(cn2)Oc2ccc(-c4cccc(Cl)c4)cc2[C@@]32COC(N)=N2)ccc1F [Example 538, (5S)-7-(3-chlorophenyl)-3-(4-fluoro-3-methoxyphenyl)spiro[chromeno[2,3-c]pyridine-5,4′-[1,3]oxazol]-2′-amine] | 0.0052 µM | 0.583 µM | – | – | –
NC1=N[C@@]2(CO1)c1cc(-c3cncnc3)ccc1Oc1cnc(-c3ccnc(F)c3)cc12 [Example 539, (5S)-3-(2-fluoro-4-pyridinyl)-7-(5-pyrimidinyl)spiro[chromeno[2,3-c]pyridine-5,4′-[1,3]oxazol]-2′-amine] | 0.0017 µM | 0.0382 µM | – | – | –
NC1=N[C@@]2(CO1)c1cc(-c3cncnc3)ccc1Oc1cnc(N3CCC(F)(F)C3)cc12 [Example 540, (5S)-3-(3,3-difluoro-1-pyrrolidinyl)-7-(5-pyrimidinyl)spiro[chromeno[2,3-c]pyridine-5,4′-[1,3]oxazol]-2′-amine] | 0.0008 µM | 0.0072 µM | – | – | –
NC1=N[C@@]2(CO1)c1cc(-c3cccnc3F)ccc1Oc1cnc(-c3cc(F)nc(F)c3)cc12 [Example 541, (5S)-3-(2,6-difluoro-4-pyridinyl)-7-(2-fluoro-3-pyridinyl)spiro[chromeno[2,3-c]pyridine-5,4′-[1,3]oxazol]-2′-amine] | 0.0004 µM | 0.0123 µM | – | – | –
NC1=N[C@@]2(CO1)c1cc(-c3cncnc3)ccc1Oc1cnc(-c3cc(F)nc(F)c3)cc12 [Example 542, (5S)-3-(2,6-difluoro-4-pyridinyl)-7-(5-pyrimidinyl)spiro[chromeno[2,3-c]pyridine-5,4′-[1,3]oxazol]-2′-amine] | 0.0011 µM | 0.0188 µM | – | – | –
CC1(C)C=C(c2cc3c(cn2)Oc2ccc(-c4cncnc4)cc2[C@@]32COC(N)=N2)CCO1 [Example 543, (5S)-3-(6,6-dimethyl-3,6-dihydro-2H-pyran-4-yl)-7-(5-pyrimidinyl)spiro[chromeno[2,3-c]pyridine-5,4′-[1,3]oxazol]-2′-amine] | 0.0016 µM | – | – | – | 0.0246 µM
CC1(C)C[C@H](c2cc3c(cn2)Oc2ccc(-c4cncnc4)cc2[C@@]32COC(N)=N2)CCO1 [Example 544, (5S)-3-((4R)-2,2-dimethyltetrahydro-2H-pyran-4-yl)-7-(5-pyrimidinyl)spiro[chromeno[2,3-c]pyridine-5,4′-[1,3]oxazol]-2′-amine] | 0.0084 µM | 0.121 µM | – | – | –
NC1=N[C@@]2(CO1)c1cc(-c3cccnc3F)ccc1Oc1cnc(-c3ccnc(C(F)(F)F)c3)cc12 [Example 545, (5S)-7-(2-fluoro-3-pyridinyl)-3-(2-(trifluoromethyl)-4-pyridinyl)spiro[chromeno[2,3-c]pyridine-5,4′-[1,3]oxazol]-2′-amine] | 0.0056 µM | 0.406 µM | – | – | –
